# According to patent publication US4221793A, “N,N'-Disubstituted piperazine derivative” (priority 1977, dated 1980):
# Where two headings read alike, the source gives them in different places.
# Assays:
# mice [1] = details: mouse, in vivo, po
# [2] = test system: isolated guinea-pig heart; assay: Activity on the isolated guinea-pig heart (Langendorff): coronary circulation and contraction level; details: for Effect on coronary vessels / circulation / Influence on contraction level of the isolated heart: in words
# [3] = Side-effect activities (cardiotoxic, central nervous system, sedation, vegetative nervous system); details: therapeutically relevant doses
# [4] = test system: isolated guinea-pig intestines; assay: Spasmolytic activity on isolated guinea-pig intestines (Magnus); details: for IC50: Cavia porcellus
# Protocol: The compound according to the invention has also been examined for its influenece on coronary circulation and on the heart mechanogram in isolated guinea-pig hearts according to the method of Langendorff (Langendorff, O., Pfluegers Arch. 61 (1895), 219) as well as for its spasmolytic activity on isolated guinea-pig intestines according to the method of Magnus (Magnus, R., Pflugers Arch. 102 (1904), 123). In this latter case, the spasmolytic activity was determined in relation to 0.2 μg/ml of histamine and 100 μg/ml of barium chloride.
# [5] = Acute toxicity test on mice (LD50); details: mouse, in vivo
# mice [6] = assay: Acute toxicity test on mice (LD50); details: in words
# mice [7] = assay: Reserpine antagonism test on mice; type: in vivo, mouse; details: in words
# Text: (§1) The pharmacological activity of the substance according to the invention was investigated in the tetrabenazine catalepsy test and in the reserpine antagonism test at the mouse.
# mice [8] = assay: Tetrabenazine catalepsy test on mice, influence on the duration of catalepsy; type: in vivo, mouse; details: for Effect in tetrabenazine catalepsy test compared with imipramine: in words
# Protocol: as §1
# Mice in groups of 10 animals each were given 15 mg/kg of tetrabenazine i.p. 30 minutes after administration of the test substance. The onset of a cataleptic condition is assessed on a 2-step round cork on to which the animals are placed so that they touch the bottom step with their head and forepaws and the upper step with their hind paws. Such a position is corrected immediately by a normal animal. For assessment, the reaction of the animals is observed every 60 seconds. The inhibition of catatonia is calculated in percentage values in relation to a control group.
# [9] = against 0.2 μg/ml histamine, read-out: Spasmolytic activity as ED50 relative to histamine
# [10] = against 100 μg/ml barium chloride, read-out: Spasmolytic activity as ED50 relative to BaCl2
smiles,measurement,setting,value
"COc1ccc2oc(C(=O)N3CCN(Cc4ccccc4)CC3)cc2c1 [According to the invention, N-(5-Methoxybenzofuran-2-ylcarbonyl)-N'-benzylpiperazine]",Compatibility (tolerability) compared with comparison preparation,mice [1],more than ten times more compatible than the comparison preparation
same,activation at 0.05 mg,"[2]; Cavia porcellus, dose 50 μg, read-out: Change in coronary circulation",39%
same,inhibition at 0.05 mg,"[2]; Cavia porcellus, dose 50 μg, read-out: Influence on contraction level",0%
same,Effect on coronary vessels / circulation,[2],causes a dilation of the coronary vessels
same,Influence on contraction level of the isolated heart,[2],does not influence the contraction level of the isolated heart
same,Cardiotoxic activity,[3],has not shown in therapeutically relevant doses any cardiotoxic
same,Central nervous system stimulation activity,[3],has not shown
same,Influence on the vegetative nervous system,[3],has not shown
same,Sedation activity,[3],has not shown
same,IC50,[4]; [9],5 to 10 µg/mL
same,IC50,[4]; [10],5 to 10 µg/mL
same,Spasmolytic activity,[4]; in words,only small
same,Influence on the peripheral vegetative nervous system,"[4]; in words, concluded from spasmolytic activity","influenced only slightly, if at all"
same,LD50,[5]; ip,548 mg/kg
same,LD50,[5]; po,> 4000 mg/kg
same,Toxicity compared with imipramine,mice [6],considerably lower toxicity
same,Activity in reserpine antagonism test compared with comparison substance,mice [7],substantially equal in activity compared with the comparison substance
same,Change of duration of catalepsy relative to control,"mice [8]; 20 mg/kg p.o., 20 min post appl., n=40",-62 ± 26%
same,Effect in tetrabenazine catalepsy test compared with imipramine,mice [8],substantially stronger effect than the comparison substance
same,Effect in tetrabenazine catalepsy test compared with imipramine,mice [8]; listed as substance according to the invention,"substantially stronger effect than the commercially available comparison substance, imipramine"
CN(C)CCCN1c2ccccc2CCc2ccccc21 [Imipramine],activation at 0.01 mg,"[2]; Cavia porcellus, dose 10 μg, first value of pair, read-out: Change in coronary circulation (initial brief increase)",19%
same,inhibition at 0.01 mg,"[2]; Cavia porcellus, dose 10 μg, read-out: Influence on contraction level",25%
same,inhibition at 0.01 mg,"[2]; Cavia porcellus, dose 10 μg, second value of pair, read-out: Change in coronary circulation (subsequent constriction)",18%
same,activation at 0.02 mg,"[2]; Cavia porcellus, dose 20 μg, first value of pair, read-out: Change in coronary circulation (initial brief increase)",28%
same,inhibition at 0.02 mg,"[2]; Cavia porcellus, dose 20 μg, read-out: Influence on contraction level",25%
same,inhibition at 0.02 mg,"[2]; Cavia porcellus, dose 20 μg, second value of pair, read-out: Change in coronary circulation (subsequent constriction)",29%
same,activation at 0.03 mg,"[2]; Cavia porcellus, dose 30 μg, first value of pair, read-out: Change in coronary circulation (initial brief increase)",84%
same,inhibition at 0.03 mg,"[2]; Cavia porcellus, dose 30 μg, read-out: Influence on contraction level",50%
same,inhibition at 0.03 mg,"[2]; Cavia porcellus, dose 30 μg, second value of pair, read-out: Change in coronary circulation (subsequent constriction)",22%
same,Effect on coronary vessels / circulation,[2],"causes initially a brief increase in circulation, this then changes to a constriction"
same,Influence on contraction level of the isolated heart,[2],heart damage which is shown by the reduction of the heart contraction
same,IC50,[4]; [9],0.001 µg/mL
same,IC50,[4]; [10],0.1 to 1 µg/mL
